Patent US12612412B2, “Antiviral heterocyclic compounds” (Enanta Pharmaceuticals, Inc., priority 2021, dated 2026)

Tests used:
[1] = tested on: HMPV clinical isolate TN/1501/A1; experiment: HMPV antiviral assay Method-B (clinical isolate TN/1501/A1 in LLC-MK2 cells, ATP-Lite readout); assay type: cell-based, Human metapneumovirus (HMPV); settings: human metapneumovirus, LLC-MK2, 144 h, hMPV WT1501 (clinical isolate TN/1501/A1), 6 days
Outline: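 LLC-MK2 cells infected in suspension with TN/1501/A1 at MOI 0.014 in serum-free medium with 2 μg/mL TPCK-trypsin (final), incubated 6 days at 37° C. Compounds tested in duplicate, 10-point 3-fold dilutions from 10 μM. Cell health read by ATP-Lite luminescence, normalised to virus-only and cells-only controls; EC50 by four-parameter logistic fit.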

[2] = tested on: genotype A, "Long" strain RSV; experiment: RSV-A assay (CPE protection in Hep-2 cells, ATPlite readout); assay type: cell-based, Human respiratory syncytial virus (HRSV); settings: human respiratory syncytial virus, genotype A “Long” strain RSV, MOI 0.1, CPE protection, read-out: Human RSV-A (“Long”)
Outline: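 Hep-2, 8,000 cells/well, MOI 0.1 (PFU- or TCID50-based); 2-fold compound series, duplicates; 5 d incubation; ATPlite luminescence readout; EC50.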

EC50 [1] | EC50 [2] | Compound
< 0.5 µM | < 0.2 µM | COc1cc(C(=O)NC[C@](O)(c2cc3c(c(-c4ccc(Cl)c(F)c4F)n2)OC[C@]3(C)C(N)=O)C2CC2)cc2cn(C3(F)CC3)nc12 [Example 685]
< 0.5 µM | < 0.2 µM | C[C@]1(C(N)=O)COc2c1cc([C@@](O)(CNC(=O)c1cc(Cl)c3nn(C4CC4)cc3c1)C1CC1)nc2-c1ccc(Cl)c(F)c1F [Example 686]
< 0.5 µM | < 0.2 µM | COc1cc(C(=O)NC[C@](O)(c2cc3c(c(-c4ccc(Cl)c(F)c4F)n2)OC[C@]3(C)C(N)=O)C2CC2)cc2cc(Cl)c(C)nc12 [Example 687]
< 0.5 µM | < 0.2 µM | Cc1cnc2c(Cl)cc(C(=O)NC[C@](O)(c3cc4c(c(-c5ccc(Cl)c(F)c5F)n3)OC[C@]4(C)C(N)=O)C3CC3)cc2c1 [Example 688]
> 0.5 µM | < 0.2 µM | COc1cc(C(=O)NC[C@](O)(c2cc3c(c(-c4ccc(F)cc4)n2)OC[C@]3(C)C(N)=O)C(F)(F)F)n2ccnc2c1 [Example 691]
> 0.5 µM | < 0.2 µM | COc1ccc(C(=O)NC[C@](O)(c2cc3c(c(-c4ccc(F)cc4)n2)OC[C@]3(C)C(N)=O)C(F)(F)F)c2cc[nH]c12 [Example 693]
> 0.5 µM | < 0.2 µM | COc1ccc(C(=O)NC[C@](O)(c2cc3c(c(-c4ccc(F)cc4)n2)OC[C@]3(C)C(N)=O)C(F)(F)F)n2cc(C)nc12 [Example 694]
> 0.5 µM | < 0.2 µM | COc1ccc(C(=O)NC[C@](O)(c2cc3c(c(-c4ccc(F)cc4)n2)OC[C@]3(C)C(N)=O)C(F)(F)F)n2cc(C3CC3)nc12 [Example 695]
> 0.5 µM | < 0.2 µM | COc1ccc(C(=O)NC[C@](O)(c2cc3c(c(-c4ccc(F)cc4)n2)OC[C@]3(C)C(N)=O)C(F)(F)F)c2[nH]ccc12 [Example 696]
< 0.5 µM | < 0.2 µM | COc1cc(C(=O)NC[C@](O)(c2cc3c(c(-c4ccc5c(c4)OC(F)(F)O5)n2)OC[C@]3(C)C(N)=O)C(F)(F)F)cc2cc(C3CC3)nn12 [Example 697]
> 0.5 µM | < 0.2 µM | C[C@]1(C(N)=O)COc2c1cc([C@@](O)(CNC(=O)c1cc(F)c3nc(N)sc3c1)C(F)(F)F)nc2-c1ccc2c(c1)OC(F)(F)O2 [Example 698]
> 0.5 µM | < 0.2 µM | COc1ccc(C(=O)NC[C@](O)(c2cc3c(c(-c4ccc(F)cc4)n2)OC[C@]3(C)C(N)=O)C(F)(F)F)n2ccnc12 [Example 699]
> 0.5 µM | < 0.2 µM | COc1ccc(C(=O)NC[C@](O)(c2cc3c(c(-c4ccc5c(c4)OC(F)(F)O5)n2)OC[C@]3(C)C(N)=O)C(F)(F)F)n2ccnc12 [Example 700]
> 0.5 µM | < 0.2 µM | C[C@]1(C(N)=O)COc2c1cc([C@@](O)(CNC(=O)c1ccc(OC3CC3)c3nccn13)C(F)(F)F)nc2-c1ccc(F)cc1 [Example 702]
< 0.5 µM | < 0.2 µM | COc1cc(C(=O)NC[C@](O)(c2cc3c(c(-c4ccc(F)c(Cl)c4)n2)OC[C@]3(C)C(N)=O)C2CC2)cc2cc(C3CC3)nn12 [Example 703]
< 0.5 µM | < 0.2 µM | C[C@]1(C(N)=O)COc2c1cc([C@@](O)(CNC(=O)c1cc(F)c3nc(N)sc3c1)C1CC1)nc2-c1ccc(F)c(Cl)c1 [Example 704]
< 0.5 µM | < 0.2 µM | COc1cc(C(=O)NC[C@](O)(c2cc3c(c(-c4ccc(F)cc4)n2)OC[C@]3(C)C(N)=O)C2(F)CC2)cc2cn(C3CC3)nc12 [Example 705]
< 0.5 µM | < 0.2 µM | COc1cc(C(=O)NC[C@](O)(c2cc3c(c(-c4ccc(F)cc4)n2)OC[C@]3(C)C(N)=O)C2(F)CC2)cc2cc(C3CC3)nn12 [Example 706]
< 0.5 µM | < 0.2 µM | COc1cc(C(=O)NC[C@](O)(c2cc3c(c(-c4ccc(F)cc4)n2)OC[C@]3(C)C(N)=O)C2(F)CC2)cc2cc(Cl)c(C)nc12 [Example 707]
< 0.5 µM | < 0.2 µM | COc1cc(C(=O)NC[C@](O)(c2cc3c(c(-c4ccc(F)cc4)n2)OC[C@]3(C)C(N)=O)C2CCC2)cc2cn(C3CC3)nc12 [Example 708]
> 0.5 µM | < 0.2 µM | C[C@]1(C(N)=O)COc2c1cc([C@@](O)(CNC(=O)c1cc(F)c3nc(N)sc3c1)C1(F)CC1)nc2-c1ccc(F)cc1 [Example 709]
< 0.5 µM | < 0.2 µM | Cc1cnc2c(OC(F)F)cc(C(=O)NC[C@](O)(c3cc4c(c(-c5ccc(F)cc5)n3)OC[C@]4(C)C(N)=O)C3(F)CC3)cc2c1 [Example 710]
< 0.5 µM | < 0.2 µM | COc1cc(C(=O)NC[C@](O)(c2cc3c(c(-c4ccc(F)cc4)n2)OC[C@]3(C)C(N)=O)C2(F)CC2)cc2cn(C(F)F)nc12 [Example 711]

EC50 [1] | EC50 [2] | Compound
< 0.5 µM | < 0.2 µM | COc1cc(C(=O)NC[C@](O)(c2cc3c(c(-c4ccc5c(c4)OC(F)(F)O5)n2)OC[C@]3(C)C(N)=O)C2(F)CC2)cc2cn(C3CC3)nc12 [Example 712]
< 0.5 µM | < 0.2 µM | Cc1cnc2c(OC(F)F)cc(C(=O)NC[C@](O)(c3cc4c(c(-c5ccc6c(c5)OC(F)(F)O6)n3)OC[C@]4(C)C(N)=O)C3(F)CC3)cc2c1 [Example 713]
< 0.5 µM | < 0.2 µM | COc1cc(C(=O)NC[C@](O)(c2cc3c(c(-c4ccc(F)c(Cl)c4)n2)OC[C@]3(C)C(N)=O)C2(F)CC2)cc2cn(C3CC3)nc12 [Example 714]
< 0.5 µM | < 0.2 µM | Cc1cnc2c(OC(F)F)cc(C(=O)NC[C@](O)(c3cc4c(c(-c5ccc(F)c(Cl)c5)n3)OC[C@]4(C)C(N)=O)C3(F)CC3)cc2c1 [Example 715]
< 0.5 µM | < 0.2 µM | COc1cc(C(=O)NC[C@](O)(c2cc3c(c(-c4ccc5c(c4)OC(F)(F)O5)n2)OC[C@]3(C)C(N)=O)C2(F)CC2)cc2cc(C3CC3)nn12 [Example 716]
< 0.5 µM | < 0.2 µM | COc1cc(C(=O)NC[C@](O)(c2cc3c(c(-c4ccc5c(c4)OC(F)(F)O5)n2)OC[C@]3(C)C(N)=O)C2(F)CC2)cc2cc(Cl)c(C)nc12 [Example 717]
> 0.5 µM | < 0.2 µM | COc1cc(C(=O)NC[C@](O)(c2cc3c(c(-c4ccc(F)c(Cl)c4)n2)OC[C@]3(C)C(N)=O)C2(F)CC2)cc2cc(C3CC3)nn12 [Example 718]
< 0.5 µM | < 0.2 µM | COc1cc(C(=O)NC[C@](O)(c2cc3c(c(-c4ccc(F)c(Cl)c4)n2)OC[C@]3(C)C(N)=O)C2(F)CC2)cc2cc(Cl)c(C)nc12 [Example 719]
< 0.5 µM | < 0.2 µM | COc1cc(C(=O)NC[C@](O)(c2cc3c(c(-c4ccc5c(c4)OC(F)(F)O5)n2)OC[C@]3(C)C(N)=O)C2(F)CC2)cc2cn(C(F)F)nc12 [Example 720]
> 0.5 µM | < 0.2 µM | COc1cc(C(=O)NC[C@](O)(c2cc3c(c(-c4ccc(F)c(Cl)c4)n2)OC[C@]3(C)C(N)=O)C2(F)CC2)cc2cn(C(F)F)nc12 [Example 721]
< 0.5 µM | < 0.2 µM | COc1cc(C(=O)NC[C@](O)(c2cc3c(c(-c4ccc(F)c(Cl)c4)n2)OC[C@]3(C)C(N)=O)C2CC2)cc2sc(C)nc12 [Example 722]
< 0.5 µM | < 0.2 µM | COc1cc(C(=O)NC[C@](O)(c2cc3c(c(-c4ccc(F)c(Cl)c4)n2)OC[C@]3(C)C(N)=O)C2(F)CC2)cc2sc(C)nc12 [Example 723]
< 0.5 µM | < 0.2 µM | COc1cc(C(=O)NC[C@](O)(c2cc3c(c(-c4ccc(F)cc4)n2)OC[C@]3(C)C(N)=O)C2(F)CC2)cc2sc(C)nc12 [Example 724]
< 0.5 µM | < 0.2 µM | COc1cc(C(=O)NC[C@](O)(c2cc3c(c(-c4ccc5c(c4)OC(F)(F)O5)n2)OC[C@]3(C)C(N)=O)C2(F)CC2)cc2cn(C3(F)CC3)nc12 [Example 725]
< 0.5 µM | < 0.2 µM | COc1cc(C(=O)NC[C@](O)(c2cc3c(c(-c4ccc(F)cc4)n2)OC[C@]3(C)C(N)=O)C2CCC2)cc2cn(C3(F)CC3)nc12 [Example 726]
< 0.5 µM | < 0.2 µM | COc1cc(C(=O)NC[C@](O)(c2cc3c(c(-c4ccc5c(c4)OC(F)(F)O5)n2)OC[C@]3(C)C(N)=O)C2(F)CC2)cc2sc(C)nc12 [Example 727]
< 0.5 µM | < 0.2 µM | COc1cc(C(=O)NC[C@](O)(c2cc3c(c(-c4ccc(F)cc4)n2)OC[C@]3(C)C(N)=O)C2CC2)cc2sc(C)nc12 [Example 728]
< 0.5 µM | < 0.2 µM | COc1cc(C(=O)NC[C@](O)(c2cc3c(c(-c4ccc(F)c(F)c4F)n2)OC[C@]3(C)C(N)=O)C2(F)CC2)cc2cn(C3CC3)nc12 [Example 729]
< 0.5 µM | < 0.2 µM | Cc1cnc2c(OC(F)F)cc(C(=O)NC[C@](O)(c3cc4c(c(-c5ccc(F)c(F)c5F)n3)OC[C@]4(C)C(N)=O)C3(F)CC3)cc2c1 [Example 730]
< 0.5 µM | < 0.2 µM | COc1cc(C(=O)NC[C@](O)(c2cc3c(c(-c4ccc(F)c(F)c4F)n2)OC[C@]3(C)C(N)=O)C2(F)CC2)cc2cc(Cl)c(C)nc12 [Example 731]
< 0.5 µM | < 0.2 µM | COc1cc(C(=O)NC[C@](O)(c2cc3c(c(-c4ccc(F)cc4Cl)n2)OC[C@]3(C)C(N)=O)C2(F)CC2)cc2cn(C3CC3)nc12 [Example 732]
< 0.5 µM | < 0.2 µM | Cc1cnc2c(OC(F)F)cc(C(=O)NC[C@](O)(c3cc4c(c(-c5ccc(F)cc5Cl)n3)OC[C@]4(C)C(N)=O)C3(F)CC3)cc2c1 [Example 733]
< 0.5 µM | < 0.2 µM | COc1cc(C(=O)NC[C@](O)(c2cc3c(c(-c4ccc(F)cc4Cl)n2)OC[C@]3(C)C(N)=O)C2(F)CC2)cc2cc(Cl)c(C)nc12 [Example 734]
